Experimental data from US9315448B2 (Cesa Alliance S.A., priority 2011, dated 2016).

Experiments:
[1] = system: Porcine reproductive and respiratory syndrome virus; test: Case study, PRRS confirmed piglets; assay type: in vivo, Pig (piglet); settings: for Treated - Improvement / Treated Virus or symptom free: Pig (piglet), wt.% per Table 2; for confirmed PRRS free / recovered completely / showed signs of recovery: piglets
[2] = system: herpes simplex virus type 1; test: Case study, Herpes Labialis patient, topical treatment; assay type: in vivo, Human
[3] = system: DNA enveloped, DNA non-enveloped, RNA enveloped and RNA non-enveloped viruses; test: In vivo case studies, overall conclusions across virus families; settings: no base oil
Rotavirus = test: Case study, piglets with confirmed Rotavirus infections; assay type: in vivo, Pig (piglet); settings: for Treated - Improvement / Treated Virus or symptom free: Pig (piglet), 2 days, wt.% per Table 2; for de-activation of the Rota virus confirmed / recovered completely / stopped having diarrhea: piglets
Description: All three piglets, which would normally experience 3 to 4 days of severe symptoms including diarrhea stopped having diarrhea on/after one day. The de-activation of the Rota virus infected was confirmed on/after the second day. The piglets recovered completely within 2 days.
Three piglets with confirmed Rotavirus infections were treated immediately with 50 mg of the compound of formula B, six times a day for 2 days. All 3 piglets, which would normally experience 4 to 5 days of severe symptoms including diarrhea stopped having diarrhea on/after the second day.
Both piglets, which would normally experience 3 to 4 days of severe symptoms including diarrhea stopped having diarrhea after one day.
(§1) All 3 piglets, which would normally experience 3 to 4 days of severe symptoms including diarrhea stopped having diarrhea after one day.
(§2) All 3 piglets, which would normally experience 3 to 4 days of severe symptoms including diarrhea stopped having diarrhea on/after one day.
as §2, §1

[4] = system: human papilloma virus 2 and 7; test: Case study, skin warts of a patient
Description: Skin warts of patient were treated with 10 mg of the compound of formula B, three times a day for 3 days.
Skin warts of a patient were treated with 10 mg of the compound of formula B+C, three times a day for 3 days.
Skin warts of a patient were treated with 10 mg of the compound of formula A+B+C, three times a day for 3 days.

Canine Herpes virus = test: Case study, Canine Herpes infected puppy; assay type: in vivo, Dog (puppy); settings: for Treated - Improvement / Treated Virus or symptom free: Dog (puppy), 300 mg, 3 times/day, 4 days, wt.% per Table 2
Parvovirus = test: Case study, Parvo infected puppy; settings: for Treated - Improvement / Treated Virus or symptom free: Dog (puppy), 300 mg, 3 times/day, 4 days, wt.% per Table 2; for confirmed Parvo free / recovered completely / showed signs of recovery: puppy, 300 mg three times a day for 4 days
[5] = 50 mg six times a day for 3 days
[6] = Human (skin), 10 mg, 3 times/day, 1 day, wt.% per Table 2
[7] = patient, topical, 10 mg three times a day for 1 day, from onset of lesions
[8] = 50 mg six times a day for 2 days
[9] = Human (skin), 10 mg, 3 times/day, 3 days, wt.% per Table 2
[10] = 500 mg three times a day for 4 days
[11] = puppy, 300 mg three times a day for 4 days
[12] = 500 mg three times a day for 2 days

Compound	results with 100 wt. % of compound compared with Tables 1 and 2 [3]	Treated - Improvement ([1]; 500 mg, 3 times/day, 4 days)	Treated Virus or symptom free ([1]; 500 mg, 3 times/day, 4 days)	confirmed PRRS free [1, 10]	recovered completely [1, 10]	showed signs of recovery [1, 10]	Treated - Improvement (Canine Herpes virus)	Treated Virus or symptom free (Canine Herpes virus)	confirmed Herpes free (Canine Herpes virus; [11])	recovered completely (Canine Herpes virus; [11])	Treated - Improvement (Parvovirus)	Treated Virus or symptom free (Parvovirus)	confirmed Parvo free (Parvovirus)	recovered completely (Parvovirus)	showed signs of recovery (Parvovirus)	Treated - Improvement (Rotavirus; 500 mg, 3 times/day)	Treated Virus or symptom free (Rotavirus; 500 mg, 3 times/day)	de-activation of the Rota virus confirmed (Rotavirus; [12])	recovered completely (Rotavirus; [12])	stopped having diarrhea (Rotavirus; [12])	also measured
C=C=C(C)c1cc(O)c(O)c(C(=O)C(C)C(C)(C)O)c1 (stereo not shown) [Formula B, 2,3(dihydroxy), 5[3(1,2)butadiene], 2[2-methylbutane]benzenal]	same results																				Treated - Improvement ([1]; 50 mg, 6 times/day, 3 days): 2 days; Treated Virus or symptom free ([1]; 50 mg, 6 times/day, 3 days): Day 3; confirmed PRRS free [1, 5]: 3 day of treatment; recovered completely [1, 5]: 4 days; showed signs of recovery [1, 5]: second; Treated - Improvement [2, 6]: 3 days; Treated Virus or symptom free [2, 6]: Day 4; course of the infection [2, 7]: did not get worse; lesions started to disappear [2, 7]: second; no more signs of infection [2, 7]: 4 days; Treated - Improvement (Rotavirus; 50 mg, 6 times/day): 2 days; Treated Virus or symptom free (Rotavirus; 50 mg, 6 times/day): Day 3; de-activation of the Rota virus confirmed (Rotavirus; [8]): second; recovered completely (Rotavirus; [8]): ≤ 3 days; stopped having diarrhea (Rotavirus; [8]): second; Treated - Improvement [4, 9]: 7 days; Treated Virus or symptom free [4, 9]: 21 days; skin tissue disappeared completely ([4]; patient, 10 mg three times a day for 3 days): 3 weeks; warts started to soften and becoming white ([4]; patient, 10 mg three times a day for 3 days, time printed in words): a week
C=C=C(C)c1cc(O)c(O)c(C(=O)C[C@](C)(O)C=C)c1 [Formula A]	same results	1 days	Day 2	2 day of treatment	4 days	one	2 days	Day 4	4 day of treatment	10 days	1 days	Day 4	4 day of treatment	6 days	first	1 days	Day 2	second	≤ 2 days	one	showed signs of recovery (Canine Herpes virus; [11]): second
C=C=C(C)c1cc(O)c(O)c(C(=O)O[C@](C)(O)C=C)c1 [Formula C, 2,3(dihydroxy), 5[3(1,2)butadiene], 2hydroxy,3butene benzoate]	same results	1 days	Day 2	2 day of treatment	4 days	one	2 days	Day 4	4 day of treatment	7 days	1 days	Day 4	4 day of treatment	6 days	first	1 days	Day 2	first	≤ 2 days	one	
